Assay results as given in patent US9340500B2, “Aromatic heterocyclic derivative having TRPV4-inhibiting activity” (SHIONOGI & CO., LTD., priority 2011, dated 2016).

Key:
[1] = BA test (oral absorbability); format: in vivo; conditions: plasma; Mouse, oral administration 1 mg/kg
Method: An experimental material and a method for examining oral absorbability
(1) Animals used rats or mice were used.
(2) Breeding condition: chow and sterilized tap water were allowed to be taken in freely.
(3) Setting of a dosage and grouping: a predetermined dosage was administered orally or intravenously. Groups were formed as shown below. (A dosage varied depending on each compound) Oral administration 1-30 mg/kg (n=2 to 3) Intravenous administration 0.5-10 mg/kg (n=2 to 3) (4) Preparation of administered liquid: In oral administration, a solution or suspension was administered. In intravenous administration, after solubilization, the administration was performed. (5) Method of Administration: In oral administration, compulsory administration to the stomach was conducted using an oral probe.
In intravenous administration, administration from the caudal vein was conducted using a syringe with an injection needle.
(6) Evaluation item: Blood was chronologically collected, and then the drug concentration in blood plasma was measured using a LC/MS/MS.
(7) Statistical analysis: With regard to a shift in plasma concentration, the plasma concentration-time area under the curve (AUC) was calculated using a nonlinear least-squares program WinNonlin®. Bioavailability (BA) was calculated from the AUCs of the oral administration group and the intravenous administration group, respectively. […]

[2] = Metabolism stability test; format: in vitro ADME; conditions: human liver microsomes, 30 minutes
Method: Using a commercially available pooled human hepatic microsomes, a test compound was reacted for a constant time, a remaining rate was calculated by comparing a reacted sample and an unreacted sample, thereby, a degree of metabolism in liver was assessed.
A reaction was performed (oxidative reaction) at 37° C. for 0 minute or 30 minutes in the presence of 1 mmol/L NADPH in 0.2 mL of a buffer (50 mmol/L Tris-HCl pH 7.4, 150 mmol/L potassium chloride, 10 mmol/L magnesium chloride) containing 0.5 mg protein/mL of human liver microsomes. After the reaction, 50 μL of the reaction mixture was added to 100 μL of a methanol/acetonitrile=1/1 (v/v), mixed and centrifuged at 3000 rpm for 15 minutes. The test compound in the supernatant was quantified by LC/MS/MS, and a remaining amount of the test compound after the reaction was calculated, letting a compound amount at 0 minute reaction time to be 100%. Hydrolysis reaction was performed in the absence of NADPH and glucuronidation reaction was in the presence of 5 mM UDP-glucuronic acid in place of NADPH, followed by similar operations.

Solubility test = format: physicochemical; conditions: artificial intestinal juice (phosphate buffer) with 1% DMSO, fassgf or other biorelevant, kinetic from dmso stock, artificial intestinal juice pH 6.8, 16 hours at 25° C.
Method: The solubility of each compound is determined under 1% DMSO addition conditions. A 10 mmol/L solution of the compound is prepared with DMSO, and 6 μL of the compound solution is added to 594 μL of an artificial intestinal juice (water and 118 mL of 0.2 mol/L NaOH reagent are added to 250 mL of 0.2 mol/L potassium dihydrogen phosphate reagent to reach 1000 mL) with a pH of 6.8. The mixture is left standing for 16 hours at 25° C., and the mixture is vacuum-filtered. The filtrate is two-fold diluted with methanol/water=1/1, and the compound concentration in the filtrate is measured with HPLC or LC/MS/MS by the absolute calibration method.

human TRPV4 [3] = target: T1, human TRPV4 (Homo sapiens (Human), UniProt Q9HBA0); assay: Test Example 3: measurement of TRPV4 inhibitory activity (Fluo-3, FDSS 3000, 4α-PDD); format: cell-based; conditions: hTRPV4/CHO cells, calculated from IC50 and 4α-PDD EC50
T1 sequence (Q9HBA0 whole entry): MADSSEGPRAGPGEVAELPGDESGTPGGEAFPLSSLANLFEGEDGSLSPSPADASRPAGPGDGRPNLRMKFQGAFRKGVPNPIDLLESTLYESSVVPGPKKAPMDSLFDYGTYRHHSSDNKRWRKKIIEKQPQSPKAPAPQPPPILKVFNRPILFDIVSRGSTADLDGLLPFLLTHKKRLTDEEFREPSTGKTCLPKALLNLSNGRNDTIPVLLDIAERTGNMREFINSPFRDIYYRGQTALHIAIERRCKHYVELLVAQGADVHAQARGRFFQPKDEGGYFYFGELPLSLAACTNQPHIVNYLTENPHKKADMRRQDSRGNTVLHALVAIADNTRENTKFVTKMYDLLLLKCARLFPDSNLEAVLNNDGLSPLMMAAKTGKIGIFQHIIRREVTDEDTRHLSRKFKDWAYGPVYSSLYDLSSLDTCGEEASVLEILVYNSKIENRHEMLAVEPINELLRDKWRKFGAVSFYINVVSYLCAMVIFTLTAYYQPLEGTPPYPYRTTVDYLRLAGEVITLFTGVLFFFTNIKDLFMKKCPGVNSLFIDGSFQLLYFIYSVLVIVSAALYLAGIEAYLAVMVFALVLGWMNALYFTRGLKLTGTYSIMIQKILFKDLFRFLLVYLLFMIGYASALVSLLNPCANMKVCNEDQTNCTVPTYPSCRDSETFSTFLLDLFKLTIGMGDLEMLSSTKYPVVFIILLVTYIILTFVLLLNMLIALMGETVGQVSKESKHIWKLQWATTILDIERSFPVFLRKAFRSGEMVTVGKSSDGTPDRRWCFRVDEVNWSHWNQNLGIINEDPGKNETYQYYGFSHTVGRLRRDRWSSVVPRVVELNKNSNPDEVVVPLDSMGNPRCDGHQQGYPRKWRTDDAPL
Method in brief: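 Fluo-3-loaded CHO-K1 cells stably expressing TRPV4 in HEPES/probenecid Hanks buffer pH 7.4; compound added, then 4α-PDD, Ca2+ fluorescence (Ex 480/Em 540 nm) read 8 min. Max-Min normalized to 10 μM Ruthenium Red (100%) and vehicle; IC50 from 10-point 3-fold series converted to Ki using 4α-PDD EC50 and concentration.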

human TRPV4 [4] = target: T1, human TRPV4; assay: Test Example 1: measurement of TRPV4 inhibitory activity (Fluo 4-AM, FLIPR TETRA, 4α-PDD 1 μmol/L); format: cell-based; conditions: hTRPV4/CHO cells, 4α-PDD 1 μmol/L
Method in brief: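 Calcium influx evoked by 4α-PDD (final 1 μmol/L) in hTRPV4/CHO-K1 cells loaded with Fluo-4 AM (final 3 μmol/L), pH 7.4 HEPES-Hanks with probenecid; compounds added 5 min earlier. Inhibition relative to 20 μM Ruthenium Red gave IC50 (logistic), converted to Ki via agonist EC50.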

human TRPV4 [5] = target: T1, human TRPV4; assay: Test Example 2: measurement of TRPV4 inhibitory activity (Fluo 3-AM, FLIPR, 4α-PDD 600 nmol/L); format: cell-based; conditions: hTRPV4/CHO cells
Method: For each compound, TRPV4 inhibitory activity was measured using cells.
(1) The TRPV4 inhibitory activity was measured using CHO-K1 cells stably expressing human TRPV4 (hTRPV4/CHO cells).
(2) In the day before the experimental day, frozen cell were thawed and washed with the culture medium (MEM-α, 10% FBS, 4 mmol/L L-Glutamine, 50 unit Penicillin, 50 μg/mL Streptomycin). Then cells were suspended in the culture medium.
(3) The 384-well plates which hTRPV4/CHO cells were seeded at densities of 4000 cells/well in the culture medium and cultured in a CO2 incubator in the presence of 5% CO2 at 37° C. for overnight was used as assay plates. […]
(7) Diluted compound solution was dispensed to each well in the compound plate, and mixed with built-in Pipette and Mixer of the Fluorescence analysis system FLIPR 384 (Molecular devices). […]
(9) The fluorescent intensity was measured with FLIPR TETRA system for 7 min from the point of time addition the compound solution, at Ex 488 nm, Em 510-570 nm wavelength.
TRPV4 inhibitory activity (IC50 value) of a compound was evaluated according to the following procedure.
(10) In the presence of the compound, the difference between maximal and minimal of fluorescent intensity value for 3 min from just before addition of 4α-PDD solution was calculated, and it was referred as Max-Min value. […]

Cc1c(C(=O)Nc2cccc(C(F)(F)F)c2)cc(-c2ccccc2)n1CCCN1CCNCC1 [Compound I-014]
bioavailability [1]: 15.2%
remaining rate (metabolism stability) ([2]; compound concentration 2 μmol/L): 66.3%
solubility at 16 h (Solubility test): > 50 µM
Ki (human TRPV4 [3]): 355 nM

CNCCCn1c(-c2ccccc2)cc(C(=O)Nc2cccc(C(F)(F)F)c2)c1C [Compound I-031]
bioavailability [1]: 24.4%
remaining rate (metabolism stability) ([2]; compound concentration 0.5 μmol/L): 92.2%
solubility at 16 h (Solubility test): > 50 µM
Ki (human TRPV4 [3]): 160 nM

Cc1c(C(=O)Nc2cccc(C(F)(F)F)c2)cc(-c2ccccc2)n1CCSCc1c(F)cccc1Cl [Compound I-084]
IC50 (human TRPV4 [4]): 1200 nM
IC50 (human TRPV4 [5]): 1600 nM
